# Reference: article PMC3827942, “A novel type of N-acetylglutamate synthase is involved in the first step of arginine biosynthesis in Corynebacterium glutamicum” (BMC Genomics, 2013)
# What was measured:
# ArgA from E. coli = target: T1, ArgA from E. coli (Escherichia coli, UniProt P0A6C5); experiment: DTNB assay of CoA release at […] nm, crude extract; format: biochemical; conditions: 500 mM L-glutamate, 0.2 mM acetyl-CoA, 0.2 mM DTNB, 100 mM Tris-HCl pH 7.5, 25 C; wild-type C. glutamicum background with own NAGS activity
# T1 construct: structural gene overexpressed from pZ8-1 in wild-type C. glutamicum ATCC 13032; crude extract
# T1 sequence (P0A6C5 1-443): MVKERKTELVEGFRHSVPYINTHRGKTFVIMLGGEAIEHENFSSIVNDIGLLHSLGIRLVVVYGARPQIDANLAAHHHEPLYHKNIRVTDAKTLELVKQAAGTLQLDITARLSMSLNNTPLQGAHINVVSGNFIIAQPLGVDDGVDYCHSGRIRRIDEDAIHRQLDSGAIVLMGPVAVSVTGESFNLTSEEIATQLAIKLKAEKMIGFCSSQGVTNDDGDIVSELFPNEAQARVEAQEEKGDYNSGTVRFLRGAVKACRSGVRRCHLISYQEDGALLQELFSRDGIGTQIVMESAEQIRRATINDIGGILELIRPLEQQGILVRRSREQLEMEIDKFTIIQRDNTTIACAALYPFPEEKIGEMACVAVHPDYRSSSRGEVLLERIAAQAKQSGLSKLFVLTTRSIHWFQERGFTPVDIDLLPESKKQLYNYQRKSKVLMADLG
# Cg3035 = target: T2, Cg3035 (Corynebacterium glutamicum, UniProt Q8NM40); experiment: DTNB assay of CoA release at […] nm, crude extract; format: biochemical; conditions: 500 mM L-glutamate, 0.2 mM acetyl-CoA, 0.2 mM DTNB, 100 mM Tris-HCl pH 7.5, 25 C; overexpressing strain against deletion mutant; no acetyl-CoA consumption without glutamate
# T2 construct: gene Cgl2740; complete ORF, untagged as far as told, overexpressed from pZ8-1 in C. glutamicum ATCC 13032 and its cg3035 deletion mutant; crude extract
# T2 sequence (Q8NM40 entry or part of it): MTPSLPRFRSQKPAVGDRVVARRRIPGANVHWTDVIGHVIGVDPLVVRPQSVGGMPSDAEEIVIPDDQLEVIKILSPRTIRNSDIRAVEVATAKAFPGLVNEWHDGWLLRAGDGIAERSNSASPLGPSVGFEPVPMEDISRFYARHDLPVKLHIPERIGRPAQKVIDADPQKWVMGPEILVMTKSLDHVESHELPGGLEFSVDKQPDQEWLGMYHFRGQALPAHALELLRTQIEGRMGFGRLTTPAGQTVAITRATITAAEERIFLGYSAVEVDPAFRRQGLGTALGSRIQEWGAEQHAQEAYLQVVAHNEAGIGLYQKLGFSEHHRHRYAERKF
compound,measurement,setting,value
CC(=O)SCCNC(=O)CCNC(=O)[C@H](O)C(C)(C)COP(=O)(O)OP(=O)(O)OC[C@H]1O[C@@H](n2cnc3c(N)ncnc32)[C@H](O)[C@@H]1OP(=O)(O)O [acetyl-CoA],"DTNB assay of CoA release at 412 nm, crude extract",ArgA from E. coli,ArgA from E. coli was found to confer additional NAGS activity
same,"DTNB assay of CoA release at 412 nm, crude extract",Cg3035,the function of Cg3035 to use acetyl-CoA for acetylation of glutamate was demonstrated
